pIC50: −log10 of the molar value.
Key:
p38α = target: T1, p38α (Homo sapiens, UniProt Q16539); assay: In vitro enzyme assay, p38α; type: biochemical; details: read-out: IC50 against p38α
T1 construct: c-myc (N); 6His (N); made in house; host or cells: E. coli (PET vectors)
Method: The ability of compounds of the invention to inhibit the enzyme p38 kinase was assessed. Activity of test compounds against each of the p38α and p38β isoforms of the enzyme was determined.
Human recombinant MKK6 (GenBank Accesion Number G1209672) was isolated from Image clone 45578 (Genomics, 1996, 33, 151) and utilised to produce protein in the form of a GST fusion protein in a pGEX vector using analogous procedures to those disclosed by J. Han et al., Journal of Biological Chemistry, 1996, 271, 2886-2891. p38α (GenBank Accession Number G529039) and p38β (GenBank Accession Number G1469305) were isolated by PCR amplification of human lymphoblastoid cDNA (GenBank Accession Number GM1416) and human foetal brain cDNA [synthesised from mRNA (Clontech, catalogue no. 6525-1) using a Gibco superscript cDNA synthesis kit] respectively using oligonucleotides designed for the 5′ and 3′ ends of the human p38α and p38β genes using analogous procedures to those described by J. Han et al., Biochimica et Biophysica Acta, 1995, 1265, 224-227 and Y. Jiang et al., Journal of Biological Chemistry, 1996, 271, 17920-17926.
Both p38 protein isoforms were expressed in e coli in PET vectors. Human recombinant p38α and p38β isoforms were produced as 5′ c-myc, 6His tagged proteins. Both MKK6 and the p38 proteins were purified using standard protocols: the GST MKK6 was purified using a glutathione sepharose column and the p38 proteins were purified using nickel chelate columns.
The p38 enzymes were activated prior to use by incubation with MKK6 for 3 hours at 30° C. The unactivated coli-expressed MKK6 retained sufficient activity to fully activate both isoforms of p38. The activation incubate comprised p38α (10 μl of 10 mg/ml) or p38β (10 μl of 5 mg/ml) together with MKK6 (10 μl of 1 mg/ml), ‘Kinase buffer’ [100 μl; pH 7.4 buffer comprising Tris (50 mM), EGTA (0.1 mM), sodium orthovanadate (0.1 mM) and β-mercaptoethanol (0.1%)] and MgATP (30 μl of 50 mM Mg(OCOCH3)2 and 0.5 mM ATP). This produced enough activated p38 enzyme for 3 Microtiter plates.
Test compounds were solubilised in DMSO and 10 μl of a 1:10 diluted sample in ‘Kinase Buffer’ was added to a well in a Microtiter plate. For single dose testing, the compounds were tested at 10 μM. ‘Kinase Assay Mix’ [30 μl; comprising Myelin Basic Protein (Gibco BRL cat. no. 1322B-010; 1 ml of a 3.33 mg/ml solution in water), activated p38 enzyme (50 μl ) and ‘Kinase Buffer’ (2 ml)] was then added followed by ‘Labelled ATP’ [10 μl; comprising 50 μM ATP, 0.1 μCi ^33P ATP (Amersham International cat. no. BF1000) and 50 mM Mg(OCOCH3)2]. The plates were incubated at room temperature with gentle agitation. Plates containing p38α were incubated for 90 min and plates containing p38β P were incubated for 45 min. Incubation was stopped by the addition of 50 μl of 20% trichloroacetic acid (TCA). The precipitated protein was phosphorylated by p38 kinase and test compounds were assessed for their ability to inhibit this phosphorylation. The plates were filtered using a Canberra Packard Unifilter and washed with 2% TCA, dried overnight and counted on a Top Count scintillation counter.
Test compounds were tested initially at a single dose and active compounds were retested to allow IC50 values to be determined.

[1] = system: TNFα production by human peripheral blood mononuclear cells; assay: PBMC test: inhibition of LPS-stimulated TNFα production; type: cell-based
Method: The ability of compounds of this invention to inhibit TNFα production was assessed by using human peripheral blood mononuclear cells which synthesise and secrete TNFα when stimulated with lipopolysaccharide.
Peripheral blood mononuclear cells (PBMC) were isolated from heparinised (10 units/ml heparin) human blood by density centrifugation (Lymphoprep™; Nycomed). Mononuclear cells were resuspended in culture medium [RPMI 1640 medium (Gibco) supplemented with 50 units/ml penicillin, 50 μg/ml streptomycin, 2 mM glutamine and 1% heat-inactivated human AB serum (Sigma H-1513)]. Compounds were solubilised in DMSO at a concentration of 50 mM, diluted 1:100 in culture medium and subsequently serial dilutions were made in culture medium containing 1% DMSO. PBMCs (2.4×10^5 cells in 160 μl culture medium) were incubated with 20 μl of varying concentrations of test compound (triplicate cultures) or 20 μl culture medium containing 1% DMSO (control wells) for 30 minutes at 37° C. in a humidified (5%CO2/95% air) incubator (Falcon 3072; 96 well flat-bottom tissue culture plates). 20 μl lipopolysaccharide [LPS E.Coli 0111:B4 (Sigma L-4130), final concentration 10 μg/ml] solubilised in culture medium was added to appropriate wells. 20 μl culture medium was added to “medium alone” control wells. Six “LPS alone” and four “medium alone” controls were included on each 96 well plate. Varying concentrations of a known TNFα inhibitor were included in each test, i.e. an inhibitor of the PDE Type IV enzyme (for example see Semmler, J. Wachtel. H and Endres, S., Int. J. Immunopharmac. (1993), 15(3), 409-413) or an inhibitor of pro TNFα convertase (for example, see McGeehan, G. M. et al. Nature (1994) 370, 558-561). Plates were incubated for 7 hours at 37° C. (humidified incubator) after which 100 μl of the supernatant was removed from each well and stored at −70° C. (96 well round-bottom plates; Corning 25850). TNFα levels were determined in each sample using a human TNFα ELISA (see WO92/10190 and Current Protocols in Molecular Biology, vol 2 by Frederick M. Ausbel et al., John Wiley and Sons Inc.).
% inhibition=(LPS alone−medium alone)−(test concentration−medium alone)/(LPS alone−medium alone)×100

[2] = system: TNFα production in human whole blood; assay: Human Whole Blood test: inhibition of LPS-stimulated TNFα production; type: cell-based
Method: The ability of the compounds of this invention to inhibit TNFα production was also assessed in a human whole blood assay. Human whole blood secretes TNFα when stimulated with LPS. This property of blood forms the basis of an assay which is used as a secondary test for compounds which profile as active in the PBMC test.
Heparinised (10 units/ml) human blood was obtained from volunteers. 160 μl whole blood were added to 96 well round-bottom plates (Corning 25850). Compounds were solubilised and serially diluted in RPMI 1640 medium (Gibco) supplemented with 50 units/ml penicillin, 50 μg/ml streptomycin and 2 mM glutamine, as detailed above. 20 μl of each test concentration was added to appropriate wells (triplicate cultures). 20 μl of RPMI 1640 medium supplemented with antibiotics and glutamine was added to control wells. Plates were incubated for 30 minutes at 37° C. (humidified incubator), prior to addition of 20 μl LPS (final concentration 10 μg/ml). RPMI 1640 medium was added to control wells. Six “LPS alone” and four “medium alone” controls were included on each plate. A known TNFα synthesis/secretion inhibitor was included in each test. Plates were incubated for 6 hours at 37° C. (humidified incubator). […] TNFα levels were measured by ELISA (see WO92/10190 and Current Protocols in Molecular Biology, vol 2 by Frederick M. Ausbel et al., John Wiley and Sons Inc.). […]

T1 sequence (Q16539 whole entry): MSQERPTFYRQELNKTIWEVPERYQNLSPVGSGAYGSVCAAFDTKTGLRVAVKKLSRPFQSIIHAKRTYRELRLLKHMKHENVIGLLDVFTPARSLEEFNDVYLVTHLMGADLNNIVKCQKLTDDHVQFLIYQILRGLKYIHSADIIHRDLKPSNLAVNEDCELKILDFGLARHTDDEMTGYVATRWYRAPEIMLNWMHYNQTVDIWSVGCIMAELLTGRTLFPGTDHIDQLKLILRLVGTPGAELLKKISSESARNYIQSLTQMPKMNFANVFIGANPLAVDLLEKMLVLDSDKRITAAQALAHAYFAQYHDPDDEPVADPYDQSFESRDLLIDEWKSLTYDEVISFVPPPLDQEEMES

Row | SMILES | melting point [°C] | pIC50 (p38α) | pIC50 [1] | pIC50 [2]
1 | Cc1ccc(NC(=O)c2ccc3ncccc3c2)cc1NC(=O)c1cccc(OCCN2CCOCC2)c1 [Example 13, N-{3-[3-(2-morpholinoethoxy)benzamido]-4-methylphenyl}quinoline-6-carboxamide] | 216 to 217 | – | – | –
2 | CCN(CC)Cc1ccc(C(=O)Nc2cc(NC(=O)c3ccnc(N4CCOCC4)c3)ccc2C)cc1 [N-[3-(4-diethylaminomethylbenzamido)-4-methylphenyl]-2-morpholinopyridine-4-carboxamide] | – | ~6.70 | > 6.30 | ~5.00
3 | Cc1ccc(NC(=O)c2ccnc(N3CCOCC3)c2)cc1NC(=O)c1cccc(CN2CCN(C)CC2)c1 [N-{3-[3-(4-methylpiperazin-1-ylmethyl)benzamido]-4-methylphenyl}-2-morpholinopyridine-4-carboxamide] | – | ~7.00 | > 6.30 | ~5.15
4 | Cc1ccc(NC(=O)c2ccnc(N3CCCC3)c2)cc1NC(=O)c1cccc(CN2CCN(C)CC2)c1 [N-{3-[3-(4-methylpiperazin-1-ylmethyl)benzamido]-4-methylphenyl}-2-pyrrolidin-1-ylpyridine-4-carboxamide] | – | ~7.00 | > 6.30 | –
5 | Cc1ccc(NC(=O)c2ccco2)cc1NC(=O)c1cccc(CN2CCN(C)CC2)c1 [N-{4-methyl-3-[3-(4-methylpiperazin-1-ylmethyl)benzamido]phenyl}furan-2-carboxamide] | – | ~6.00 | ~5.40 | –
6 | Cc1ccc(NC(=O)c2ccno2)cc1NC(=O)c1cccc(CN2CCN(C)CC2)c1 [N-{4-methyl-3-[3-(4-methylpiperazin-1-ylmethyl)benzamido]phenyl}isoxazole-5-carboxamide] | – | ~6.10 | ~6.00 | –
